For the assay, the system named is 252836-082-R-J2-PDC tumor spheroids, viability. Put plainly: Anticancer human tumor 252836-082-R-J2-PDC patient-derived head and neck squamous cell carcinoma cell line growth inhibition [PI3K]. The following applies: spheroids with HUVEC and MSC; for viability, T/C: stronger effect = lower value. From the text:
Combinatorial screen of targeted agents with the PI3K inhibitors inavolisib, alpelisib, duvelisib, and copanlisib in multi-cell type tumor spheroids
A high-throughput screen of multi-cell type tumor spheroids was designed to identify active combinations of targeted small molecules and PI3K pathway inhibitors. Complex spheroids include a stromal component modeled by human endothelial cells (HUVEC) and fibroblasts modeled by human mesenchymal stem cells (MSCs). The concentration ranges selected for each drug and investigational agent were based upon clinically achievable concentrations if the clinical Cmax of the agent was known.
Compounds. The drugs and investigational agents: inavolisib (NSC800729), alpelisib (NSC765974), duvelisib (NSC772469), copanlisib (NSC816437), ipatasertib (NSC767898), afuresertib (NSC778305), talazoparib (NSC767125), sapanisertib (NSC764658), selumetinib (NSC741078), tovorafenib (DAY101, NSC766906), vemurafenib (NSC761431), ravoxertinib (NSC781343), sotorasib (NSC818433), MRTX1133 (NSC 836407), abemaciclib (NSC 768073), palbociclib (NSC758247), venetoclax (NSC 766270), SY5609 (NSC837396), enzalutamide (NSC755605), and darolutamide (NSC825331), were obtained from the National Cancer Institute (NCI) Developmental Therapeutics Program Chemical Repository. The FDA-approved anticancer drug set is available from the NCI Developmental Therapeutics Program. […] The stock solutions were prepared in dimethyl sulfoxide (DMSO, Sigma-Aldrich, St. Louis, MO, cat. D2650) at 800-fold the tested concentration and stored at -70 degrees C prior to their use. All drugs and investigational agents were tested over a range starting from a high concentration at or near the clinical Cmax and decreasing in half-log increments. If the clinical Cmax for an agent had not been determined, the highest concentration tested was 10 microM.
Cell Culture. All cells were maintained in an incubator at 37 degrees C and 5% CO2 with 95% humidity. The PDC lines were cultured according to standard operating procedures established by the NCI PDMR (https://pdmr.cancer.gov/sops/default.htm). All PDCs were thawed and cultured in Matrigel-coated flasks prepared with a working solution of 1X Ham's F-12 nutrient mix, without supplementation (Invitrogen, Waltham, MA, cat. 11765054), 100 U/mL penicillin-streptomycin (Invitrogen, cat. 15140122), and 2.5% Matrigel (Corning Inc., Corning, NY, cat. 354248) for the first three passages. The 354836-022-R-J1-PDC, 475296-252-R-J1-PDC, and 997726-040-R-J2-PDC lines were cultured in 6A media, which includes advanced DMEM/F-12 (Thermo Fisher Scientific, cat. 12634028), 10 mM HEPES (Thermo Fisher Scientific, cat. 15630080), 1X GlutaMAX supplement (Thermo Fisher Scientific, cat. 35050061), 0.1 mg/mL primocin (InvivoGen, San Diego, CA, cat. ant-pm-2), 10% defined fetal bovine serum, heat inactivated (HyClone Laboratories Inc., Logan, UT, cat. SH30070.03HI), 50% L-WRN conditioned media (ATCC, cat. CRL-3276), 1.25 mM N-Acetyl-L-cysteine (Sigma-Aldrich, cat. A9165), 10 mM nicotinamide (Sigma-Aldrich, cat. N0636), 1X B-27 supplement (Thermo Fisher Scientific, cat. 17504044), 1X N-2 supplement (Thermo Fisher Scientific, cat. 17502048), and 10 microM Y-27632 dihydrochloride (Tocris Bioscience, Bristol, United Kingdom, cat. 1254). The 624824-186-R-J2-PDC line was cultured in 6C/Colon 1B media, which includes all 6A media components plus 50 ng/mL human EGF recombinant protein (Thermo Fisher Scientific, cat. PHG0311). […]

The mark [1] stands for this setting: compound alone, run of 06/13/2023.

SMILES strings stand for the structures. Values joined by “and” are separate entries in the source; they are usually repeats but may differ in a detail not shown here. Identical values can stand only once.

The values below come from PubChem BioAssay AID1963985 (Molecular Pharmacology Branch, DTP, NCI, 2024).
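Further: spheroids exposed to agents for seven days before readout.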
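Wherever viability, T/C is given: percent of vehicle DMSO control viability so 100% = untreated growth.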

For `CC(=O)c1c(C)c2cnc(Nc3ccc(N4CCNCC4)cn3)nc2n(C2CCCC2)c1=O`, the viability, T/C by setting is: (compound 0.000316 µM) 95.4% [middle of 4 runs]; (compound 0.001 µM) 95.7% [middle of 4 runs]; (compound 0.00316 µM) 93.9% and 100% (2×) and 83.1%; (compound 0.01 µM) 97.5% [middle of 4 runs]; (compound 0.0316 µM) 87.3% [middle of 4 runs]; (compound 0.1 µM) 95.2% [middle of 4 runs]. The IC50 (curve of compound) is greater than 0.1 µM.

On to `CC(C)NCC(C(=O)N1CCN(c2ncnc3c2C(C)CC3O)CC1)c1ccc(Cl)cc1` (centres undefined), for which the viability, T/C runs as follows: (compound 0.0316 µM) 84.2% [middle of 4 runs]; (compound 0.1 µM) 96.8% [middle of 4 runs]; (compound 0.316 µM) 87.8% (2×) and 61.1% and 70.6%; (compound 1 µM) 45.1% [middle of 4 runs]; (compound 3.16 µM) 31.7% [middle of 4 runs]; (compound 10 µM) 19.7% [middle of 4 runs]. In addition, the half-inhibitory concentration (IC50) (curve of compound) was 850 nM [middle of 4 runs].

`CC(C)n1nc(-c2ccc3oc(N)nc3c2)c2c(N)ncnc21`: the viability, T/C runs as follows: (compound 0.000316 µM) 93.7% [middle of 4 runs]; (compound 0.001 µM) 91.8% [middle of 4 runs]; (compound 0.00316 µM) 87.4% [middle of 4 runs]; (compound 0.01 µM) 80.9% [middle of 4 runs]; (compound 0.0316 µM) 53.5% [middle of 4 runs]; (compound 0.1 µM) 23% [middle of 4 runs]. The concentration for half-maximal inhibition (IC50) (curve of compound) is 36.6 nM [middle of 4 runs].

On to `CC(Cn1ccc(-c2ccc(C#N)c(Cl)c2)n1)NC(=O)c1cc(C(C)O)[nH]n1` (centres undefined), for which the viability, T/C was 93.6% [middle of 4 runs] (compound 0.0316 µM); 88.4% [middle of 4 runs] (compound 0.1 µM); 98.8% [middle of 4 runs] (compound 0.316 µM); 97.2% [middle of 4 runs] (compound 1 µM); 92.5% [middle of 4 runs] (compound 3.16 µM); 91.9% [middle of 4 runs] (compound 10 µM). Also, the IC50 (curve of compound) was greater than 10 µM.

In the case of `CC(Nc1ccc2c(c1)OCCn1cc(N3C(=O)OCC3C(F)F)nc1-2)C(N)=O` (centres undefined), the viability, T/C was 93% [middle of 8 runs] (compound 0.00316 µM); 96.8% [middle of 8 runs] (compound 0.01 µM); 81% [middle of 8 runs] (compound 0.0316 µM); 65.7% [middle of 8 runs] (compound 0.1 µM); 51.8% [middle of 8 runs] (compound 0.316 µM); 47.7% [middle of 8 runs] (compound 1 µM).

As for `CC(Nc1ncnc2nc[nH]c12)c1cc2cccc(Cl)c2c(=O)n1-c1ccccc1` (centres undefined), the viability, T/C is, setting by setting: (compound 0.0316 µM) 96.2% [middle of 8 runs]; (compound 0.1 µM) 95.5% [middle of 8 runs]; (compound 0.316 µM) 97.4% [middle of 8 runs]; (compound 3.16 µM) 78.1% [middle of 8 runs]; (compound 10 µM) 64.3% [middle of 8 runs]. Under setting [1], the IC50 is greater than 10 µM.

Consider `CC1(C)CCC(CN2CCN(c3ccc(C(=O)NS(=O)(=O)c4ccc(NCC5CCOCC5)c([N+](=O)[O-])c4)c(Oc4cnc5[nH]ccc5c4)c3)CC2)=C(c2ccc(Cl)cc2)C1`, for which the viability, T/C is 97.7% [middle of 4 runs] (compound 0.0316 µM), 99.2% [middle of 4 runs] (compound 0.1 µM), 100% [middle of 4 runs] (compound 0.316 µM) and 96% [middle of 4 runs] (compound 1 µM).

As for `CCCS(=O)(=O)Nc1ccc(F)c(C(=O)c2c[nH]c3ncc(-c4ccc(Cl)cc4)cc23)c1F`, the viability, T/C by setting is: (compound 0.0316 µM) 99% [middle of 4 runs]; (compound 1 µM) 96.2% [middle of 4 runs]; (compound 3.16 µM) 90% [middle of 4 runs]; (compound 10 µM) 8.42% [middle of 4 runs]. Where the note is “curve of compound”, the 50% inhibitory concentration (IC50) is 5.49 µM [middle of 4 runs].

As for `CCN1CCN(Cc2ccc(Nc3ncc(F)c(-c4cc(F)c5nc(C)n(C(C)C)c5c4)n3)nc2)CC1`, the viability, T/C is, setting by setting: (compound 0.00316 µM) 99.2% [middle of 4 runs]; (compound 0.01 µM) 91.3% [middle of 4 runs]; (compound 0.0316 µM) 94.5% [middle of 4 runs]; (compound 0.1 µM) 95.2% [middle of 4 runs]; (compound 0.316 µM) 91.5% [middle of 4 runs]. For the same compound, for the setting “curve of compound”, the concentration for half-maximal inhibition (IC50) is greater than 1 µM.

For the compound `COc1c(OCCCN2CCOCC2)ccc2c3n(c(=NC(=O)c4cnc(N)nc4)nc12)CCN3`, the viability, T/C is 96.6% [middle of 8 runs] (compound 0.00316 µM); 80.7% [middle of 8 runs] (compound 0.01 µM); 59.6% [middle of 8 runs] (compound 0.0316 µM); 36.6% [middle of 8 runs] (compound 0.1 µM); 15.3% [middle of 7 runs] (compound 0.316 µM); 4.26% [middle of 8 runs] (compound 1 µM). In addition, under setting [1], the IC50 is 47.6 nM [middle of 8 runs].

Take `C[C@@H](NC(=O)c1ncnc(N)c1Cl)c1ncc(C(=O)Nc2cc(C(F)(F)F)c(Cl)cn2)s1`: the viability, T/C reads like this: (compound 0.0316 µM) 98.2% [middle of 4 runs]; (compound 0.1 µM) 93% [middle of 4 runs]; (compound 0.316 µM) 104% [middle of 4 runs]; (compound 1 µM) 109% [middle of 4 runs]; (compound 3.16 µM) 96.5% [middle of 4 runs]; (compound 10 µM) 87.4% [middle of 4 runs]. The IC50 (curve of compound) is greater than 10 µM.

In the case of `Cc1nc(NC(=O)N2CCCC2C(N)=O)sc1-c1ccnc(C(C)(C)C(F)(F)F)c1` (centres undefined), the viability, T/C runs as follows: (compound 0.0316 µM) 86.2% [middle of 8 runs]; (compound 0.1 µM) 88.9% [middle of 8 runs]; (compound 0.316 µM) 81% [middle of 8 runs]; (compound 1 µM) 62.9% [middle of 8 runs]; (compound 3.16 µM) 48% [middle of 8 runs]; (compound 10 µM) 35% [middle of 8 runs]. The IC50 (compound alone, run of 06/12/2023) was 2.64 µM [middle of 8 runs].

Turning to `Cn1cnc2c(F)c(Nc3ccc(Br)cc3Cl)c(C(=O)NOCCO)cc21`, the viability, T/C is 80.3% and 86.2% (2×) and 89.4% (compound 0.00949 µM); 93.8% [middle of 4 runs] (compound 0.03 µM); 81.6% [middle of 4 runs] (compound 0.0949 µM); 86.9% [middle of 4 runs] (compound 0.3 µM); 72.7% [middle of 4 runs] (compound 0.949 µM); 49.5% [middle of 4 runs] (compound 3 µM).

Consider `Cn1ncnc1[C@H]1c2n[nH]c(=O)c3cc(F)cc(c23)N[C@@H]1c1ccc(F)cc1`, for which the viability, T/C is, setting by setting: (compound 0.000316 µM) 97% [middle of 4 runs]; (compound 0.001 µM) 95.9% [middle of 4 runs]; (compound 0.00316 µM) 89.2% [middle of 4 runs]; (compound 0.01 µM) 93.7% [middle of 4 runs]; (compound 0.0316 µM) 69.4% [middle of 4 runs]; (compound 0.1 µM) 55.5% [middle of 4 runs]. Where the note is “curve of compound”, the IC50 was greater than 0.1 µM.

What is called viability, T/C is the result in the treated group divided by that in the control group, in per cent. As usually defined, the IC50 is the concentration needed to halve the response being measured.
